Source: ChEMBL document CHEMBL1126543, “1,24S-dihydroxy-26,27-cyclo-22-yne-vitamin D3: the side chain triple bond analogue of MC 903 (calcipotriol)” (Bioorg Med Chem Lett, 1993)
Calls of active or inactive are those of the source. The rule behind the calls is not given here.

Key:
Rattus norvegicus [1] = assay: Tested for the effect on calcium homeostasis in rats dosed up to 100 ug/kg daily for 7 days; Compound was found to show no effect; type: functional, organism-based
Rattus norvegicus [2] = assay: Tested for the hypercalciuria effect at 0.5 ug/kg by 1,25-(OH)2D3 for 7 days up to 100 ug/kg; compound produced marked hypercalciuria at 0.5 ug/kg; type: functional, organism-based

## C=C1/C(=C\C=C2/CCC[C@]3(C)[C@@H]([C@H](C)C#C[C@@H](O)C4CC4)CC[C@@H]23)C[C@@H](O)C[C@@H]1O
Rattus norvegicus [1]
  Activity: inactive
Rattus norvegicus [2]
  Activity: Marked hypercalciuria at 0.5 ug/kg
